{
  "source": "patent US9975853B2",
  "about": "“Tetrahydroisoquinolinone derivatives and their use in the inhibition of the HSP70 protein” (Julius-Maximilians-Universitaet Wuerzburg, priority 2014, dated 2018)",
  "key": {"caspases 9 and 3": {"test_system": "caspases 9 and 3", "assay": "Apoptosis assay: cleavage and activation of caspases 9 and 3, PARP cleavage in INA-6 cells (Western blot)", "assay_type": "cell-based, human", "settings": "INA-6, 0.6 μM, 24 hours", "description": "Apoptosis Assays. Hsp70-dependent prevention of apoptosis was investigated by analyses of the apoptosis-inducing factors (AIF) and of the caspases 9 and 3 in INA-6 cells. INA-6 cells were treated with 0.6 μM of compound trans-7b for 8 hours prior to analyze nuclear translocation of AIF. Staining of the nuclear protein lamin A was used as a loading control. […] Analysis of cleavage of the bona fide caspase substrate PARP served as a control for caspase activation. Co-treatment with the pan-caspase inhibitor Z-VAD-FMK (50 μM) was employed as another specificity control.\nIn FIG. 2A Western blot analyses of caspases 9 and 3, and the caspase substrate PARP (upper panel), and viability analyses (lower panel) of INA-6 MM cells upon treatment with trans-7b for 24 hours are shown. […] Lysates were cleared by centrifugation, measured by quantitative protein assay (Bio-Rad, München, Germany) and subjected to SDS gel electrophoresis. […] INA-6 cells were washed in PBS, incubated for 15 minutes in 100 ml binding buffer (10 mM HEPES/NaOH, pH 7.4, 140 mM NaCl, 2.5 mM CaCl2) containing 2.5 mL annexin V-FITC mix and 1 mg/ml PI and analyzed by flow cytometry (FACSCalibur/CELLQuest; Becton Dickinson, Heidelberg, Germany). […] Raw data of three independent experiments have been calculated to establish means, standard deviation and dose-effect curves of trans-7b."}, "[1]": {"test_system": "HSP70/HSP90 multi-chaperone client proteins", "assay": "Western blot analysis of HSP70/HSP90 chaperone-dependent signaling intermediates and substrates in INA-6 cells", "assay_type": "cell-based, human", "settings": "INA-6, 0.6 μM", "description": "Western Blot Analysis. Protein expression levels were determined with Western blotting procedures (M. Chatterjee, et al., Blood 2002, 100, 3311-3318). Following separation by SDS-PAGE, proteins were transferred onto nitrocellulose membranes (Schleicher & Schuell, Dassel, Germany) and stained with antibodies against Hsp72, Hsp73, Hsp90 (all from Enzo Life Science, Lörrach, Germany), AIF, lamin A, caspases 9 and 3, PARP (all from Santa Cruz, Heidelberg, Germany). An anti-α tubulin antibody (Sigma, Deisenhofen, Germany) was employed to assess equal loading. Secondary antibodies used were anti-rat (Enzo Life Science), anti-rabbit and anti-mouse (both from GE Healthcare, Little Chalfont, UK). […] The heat shock proteins HSP72 and HSP73 critically interact with HSP90 in order to mediate an essential chaperone function for a multitude of proteins including various signaling intermediates. According to an established HSP72/73-dependent client protein signature and its role for survival in MM, the proposed anti-HSP72/73 effect of trans-7b in the INA-6 multiple myeloma (MM) cell line model was evaluated. […] Lysates were cleared by centrifugation, measured by quantitative protein assay (Bio-Rad, München, Germany) and subjected to SDS gel electrophoresis. […]"}},
  "note": "Entries after “also recorded” stand apart in the source; their conditions may differ.",
  "data": [
    {"smiles": "COc1ccc(C2C(C(=O)Nc3cccc(C)n3)c3ccccc3C(=O)N2c2ccccc2)cc1", "note": "(stereo not drawn) [trans-7b, trans-3-(4-Methoxyphenyl)-N-(6-methylpyridin-2-yl)-1-oxo-2-phenyl-1,2,3,4-tetrahydroisoquinoline-4-carboxamide]", "values": [
      {"measurement": "caspase 9 and 3 cleavage/activation (PARP cleavage)", "setting": "caspases 9 and 3", "result": "activation of the caspases 9 and 3; also recorded: sequential caspase 9 and 3 cleavage leading to their activation"},
      {"measurement": "AKT, C-Raf, RIP, IKKα and MEK levels", "setting": "[1]", "result": "strongly downregulated"},
      {"measurement": "p-MEK, p-ERK and pSTAT3 levels", "setting": "[1]", "result": "downregulated"}
    ]}
  ]
}
